{"source": "ChEMBL document CHEMBL4819089", "about": "“Magnolol, a natural aldehyde dehydrogenase-2 agonist, inhibits the proliferation and collagen synthesis of cardiac fibroblasts” (Bioorg Med Chem Lett, 2021)", "key": {"Cardiac fibroblast [1]": {"system": "Cardiac fibroblast", "test": "Anti-myocardial fibrosis activity against cardiac fibroblasts (unknown origin) assessed as inhibition of cell viability at 30 uM measured after 24 hrs by MTT assay", "format": "functional, tissue-based"}, "Cardiac fibroblast [2]": {"system": "Cardiac fibroblast", "test": "Anti-myocardial fibrosis activity against cardiac fibroblasts (unknown origin) assessed as inhibition of cell proliferation at 30 uM measured after 24 hrs by EdU incorporation based assay", "format": "functional, tissue-based"}, "Cardiac fibroblast [3]": {"system": "Cardiac fibroblast", "test": "Anti-myocardial fibrosis activity against cardiac fibroblasts (unknown origin) assessed as reduction in CDK4 protein expression at 30 uM measured after 24 hrs by western blot analysis", "format": "functional, tissue-based"}, "Cardiac fibroblast [4]": {"system": "Cardiac fibroblast", "test": "Anti-myocardial fibrosis activity against cardiac fibroblasts (unknown origin) assessed as reduction in cyclinD1 protein expression at 30 uM measured after 24 hrs by western blot analysis", "format": "functional, tissue-based"}, "Cardiac fibroblast [5]": {"system": "Cardiac fibroblast", "test": "Anti-myocardial fibrosis activity against cardiac fibroblasts (unknown origin) assessed as reduction in collagen synthesis by measuring reduction in type1 collagen protein expression at 30 uM measured after 24 hrs by western blot analysis", "format": "functional"}, "Cardiac fibroblast [6]": {"system": "Cardiac fibroblast", "test": "Anti-myocardial fibrosis activity against cardiac fibroblasts (unknown origin) assessed as reduction in collagen synthesis by measuring reduction in type3 collagen protein expression at 30 uM measured after 24 hrs by western blot analysis", "format": "functional"}, "Cardiac fibroblast [7]": {"system": "Cardiac fibroblast", "test": "Anti-myocardial fibrosis activity against cardiac fibroblasts (unknown origin) assessed as inhibition of cell viability measured after 24 hrs by MTT assay", "format": "functional, tissue-based", "conditions": "dose 5-20 µM"}, "Cardiac fibroblast [8]": {"system": "Cardiac fibroblast", "test": "Anti-myocardial fibrosis activity against cardiac fibroblasts (unknown origin) assessed as inhibition of cell viability at 20 uM measured for 120 hrs by MTT assay", "format": "functional, tissue-based"}, "Cardiac fibroblast [9]": {"system": "Cardiac fibroblast", "test": "Anti-myocardial fibrosis activity against cardiac fibroblasts (unknown origin) assessed as inhibition of cell proliferation measured after 24 hrs by EdU incorporation based assay", "format": "functional, tissue-based", "conditions": "dose 5-20 µM"}, "Cardiac fibroblast [10]": {"system": "Cardiac fibroblast", "test": "Anti-myocardial fibrosis activity against cardiac fibroblasts (unknown origin) assessed as reduction in CDK4 protein expression measured after 24 hrs by western blot analysis", "format": "functional, tissue-based", "conditions": "dose 5-20 µM"}, "Cardiac fibroblast [11]": {"system": "Cardiac fibroblast", "test": "Anti-myocardial fibrosis activity against cardiac fibroblasts (unknown origin) assessed as reduction in cyclinD1 protein expression measured after 24 hrs by western blot analysis", "format": "functional, tissue-based", "conditions": "dose 5-20 µM"}, "Cardiac fibroblast [12]": {"system": "Cardiac fibroblast", "test": "Effect on Bax protein expression in cardiac fibroblasts (unknown origin) at 5 to 20 uM incubated for 24 hrs by western blot analysis", "format": "functional, tissue-based", "conditions": "dose 5-20 µM"}, "Cardiac fibroblast [13]": {"system": "Cardiac fibroblast", "test": "Effect on Bcl2 protein expression in cardiac fibroblasts (unknown origin) at 5 to 20 uM incubated for 24 hrs by western blot analysis", "format": "functional, tissue-based", "conditions": "dose 5-20 µM"}, "Cardiac fibroblast [14]": {"system": "Cardiac fibroblast", "test": "Anti-myocardial fibrosis activity against cardiac fibroblasts (unknown origin) assessed as reduction in collagen synthesis by measuring reduction in type1 collagen protein expression measured after 24 hrs by western blot analysis", "format": "functional, tissue-based", "conditions": "dose 5-20 µM"}, "Cardiac fibroblast [15]": {"system": "Cardiac fibroblast", "test": "Anti-myocardial fibrosis activity against cardiac fibroblasts (unknown origin) assessed as reduction in collagen synthesis by measuring reduction in type3 collagen protein expression measured after 24 hrs by western blot analysis", "format": "functional", "conditions": "dose 5-20 µM"}, "[16]": {"biological_target": "T1, Aldehyde dehydrogenase, mitochondrial (Homo sapiens) (UniProt P05091)", "T1 sequence (whole entry)": "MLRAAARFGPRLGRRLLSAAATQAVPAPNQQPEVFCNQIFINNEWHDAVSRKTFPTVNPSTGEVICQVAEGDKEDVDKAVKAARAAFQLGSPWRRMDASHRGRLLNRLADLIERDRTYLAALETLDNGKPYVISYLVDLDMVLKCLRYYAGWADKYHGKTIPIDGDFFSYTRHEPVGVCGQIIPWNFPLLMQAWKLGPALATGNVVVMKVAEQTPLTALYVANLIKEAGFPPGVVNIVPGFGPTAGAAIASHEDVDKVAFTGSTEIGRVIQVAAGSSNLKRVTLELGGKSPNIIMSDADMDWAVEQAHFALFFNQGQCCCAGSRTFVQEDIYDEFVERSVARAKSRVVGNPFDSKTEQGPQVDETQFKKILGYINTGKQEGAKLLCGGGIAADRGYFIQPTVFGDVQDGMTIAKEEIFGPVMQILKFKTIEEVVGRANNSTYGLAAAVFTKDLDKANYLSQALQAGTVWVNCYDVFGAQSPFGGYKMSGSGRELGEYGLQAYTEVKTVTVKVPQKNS", "test": "Agonist activity at ALDH2 in cardiac fibroblasts (unknown origin) measured after 24 hrs by ELISA", "format": "tissue-based", "conditions": "Cardiac fibroblast, filed as agonist, dose 5-20 µM"}, "Cardiac fibroblast [17]": {"system": "Cardiac fibroblast", "test": "Effect on ALDH2 expression in cardiac fibroblasts (unknown origin) at 5 to 20 uM measured after 24 hrs by western blot analysis", "format": "functional, tissue-based", "conditions": "dose 5-20 µM"}, "[18]": {"biological_target": "T1, Aldehyde dehydrogenase, mitochondrial (Homo sapiens)", "test": "(§1) Agonist activity at human recombinant ALDH2 measured after 1 hr", "conditions": "filed as agonist"}, "[19]": {"biological_target": "T2, Aldehyde dehydrogenase, mitochondrial (Homo sapiens, UniProt P05091)", "T2 sequence (P05091 whole entry)": "T1 sequence (whole entry)", "test": "as §1"}, "Cardiac fibroblast [20]": {"system": "Cardiac fibroblast", "test": "Anti-myocardial fibrosis activity against cardiac fibroblasts (unknown origin) assessed as inhibition of cell viability measured after 24 hrs in presence of ALDH2 inhibitor, daidzin by MTT assay", "format": "functional, tissue-based"}, "Cardiac fibroblast [21]": {"system": "Cardiac fibroblast", "test": "Anti-myocardial fibrosis activity against cardiac fibroblasts (unknown origin) assessed as inhibition of cell proliferation measured after 24 hrs in presence of ALDH2 inhibitor, daidzin by EdU incorporation based analysis", "format": "functional, tissue-based"}, "Cardiac fibroblast [22]": {"system": "Cardiac fibroblast", "test": "Anti-myocardial fibrosis activity against cardiac fibroblasts (unknown origin) assessed as reduction in CDK4 protein expression measured after 24 hrs in presence of ALDH2 inhibitor, daidzin by western blot analysis", "format": "functional, tissue-based"}, "Cardiac fibroblast [23]": {"system": "Cardiac fibroblast", "test": "Anti-myocardial fibrosis activity against cardiac fibroblasts (unknown origin) assessed as reduction in cyclinD1 protein expression measured after 24 hrs in presence of ALDH2 inhibitor, daidzin by western blot analysis", "format": "functional, tissue-based"}, "Cardiac fibroblast [24]": {"system": "Cardiac fibroblast", "test": "Effect on Bcl2 protein expression in cardiac fibroblasts (unknown origin) measured after 24 hrs in presence of ALDH2 inhibitor, daidzin by western blot analysis", "format": "functional, tissue-based"}, "Cardiac fibroblast [25]": {"system": "Cardiac fibroblast", "test": "Effect on Bax protein expression in cardiac fibroblasts (unknown origin) measured after 24 hrs in presence of ALDH2 inhibitor, daidzin by western blot analysis", "format": "functional, tissue-based"}, "Cardiac fibroblast [26]": {"system": "Cardiac fibroblast", "test": "Anti-myocardial fibrosis activity against cardiac fibroblasts (unknown origin) assessed as reduction in collagen synthesis by measuring reduction in type1 collagen protein expression measured after 24 hrs in presence of ALDH2 inhibitor, daidzin by western blot analysis", "format": "functional, tissue-based"}, "Cardiac fibroblast [27]": {"system": "Cardiac fibroblast", "test": "Anti-myocardial fibrosis activity against cardiac fibroblasts (unknown origin) assessed as reduction in collagen synthesis by measuring reduction in type3 collagen protein expression measured after 24 hrs in presence of ALDH2 inhibitor, daidzin by western blot analysis", "format": "functional, tissue-based"}, "[28]": {"biological_target": "T1, Aldehyde dehydrogenase, mitochondrial (Homo sapiens)", "test": "Binding affinity to ALDH2 (unknown origin) by surface plasmon resonance analysis", "conditions": "filed as agonist"}}, "note": "The source made the active and inactive calls. No cut-off for these calls is given here.", "data": [{"smiles": "O=C(NCc1ccc2c(c1)OCO2)c1c(Cl)cccc1Cl", "values": [{"measurement": "Activity", "setting": "Cardiac fibroblast [1]", "result": "Active"}, {"measurement": "Activity", "setting": "Cardiac fibroblast [2]", "result": "Active"}, {"measurement": "Activity", "setting": "Cardiac fibroblast [3]", "result": "Active"}, {"measurement": "Activity", "setting": "Cardiac fibroblast [4]", "result": "Active"}, {"measurement": "Activity", "setting": "Cardiac fibroblast [5]", "result": "Active"}, {"measurement": "Activity", "setting": "Cardiac fibroblast [6]", "result": "Active"}]}, {"smiles": "C=CCc1ccc(O)c(-c2cc(CC=C)ccc2O)c1", "note": "[MAGNOLOL]", "values": [{"measurement": "Activity", "setting": "Cardiac fibroblast [7]", "result": "Dose-Dependent Effect"}, {"measurement": "Activity", "setting": "Cardiac fibroblast [8]", "result": "Active"}, {"measurement": "Activity", "setting": "Cardiac fibroblast [9]", "result": "Dose-Dependent Effect"}, {"measurement": "Activity", "setting": "Cardiac fibroblast [10]", "result": "Dose-Dependent Effect"}, {"measurement": "Activity", "setting": "Cardiac fibroblast [11]", "result": "Dose-Dependent Effect"}, {"measurement": "Activity", "setting": "Cardiac fibroblast [12]", "result": "inactive"}, {"measurement": "Activity", "setting": "Cardiac fibroblast [13]", "result": "inactive"}, {"measurement": "Activity", "setting": "Cardiac fibroblast [14]", "result": "Dose-Dependent Effect"}, {"measurement": "Activity", "setting": "Cardiac fibroblast [15]", "result": "Dose-Dependent Effect"}, {"measurement": "Activity", "setting": "[16]", "result": "Dose-Dependent Effect"}, {"measurement": "Activity", "setting": "Cardiac fibroblast [17]", "result": "inactive"}, {"measurement": "Activity", "setting": "[18]", "result": "Dose-Dependent Effect"}, {"measurement": "EC50", "setting": "[19]", "result": 57.9, "unit": "µM"}, {"measurement": "Activity", "setting": "Cardiac fibroblast [20]", "result": "inactive"}, {"measurement": "Activity", "setting": "Cardiac fibroblast [21]", "result": "inactive"}, {"measurement": "Activity", "setting": "Cardiac fibroblast [22]", "result": "inactive"}, {"measurement": "Activity", "setting": "Cardiac fibroblast [23]", "result": "inactive"}, {"measurement": "Activity", "setting": "Cardiac fibroblast [24]", "result": "inactive"}, {"measurement": "Activity", "setting": "Cardiac fibroblast [25]", "result": "inactive"}, {"measurement": "Activity", "setting": "Cardiac fibroblast [26]", "result": "inactive"}, {"measurement": "Activity", "setting": "Cardiac fibroblast [27]", "result": "inactive"}, {"measurement": "Activity", "setting": "[28]", "result": "7.07 10^-6M"}]}]}
